Results reported in PMC5033673 (Cancer research, 2016).

Molecular target: MutSα (MSH2/MSH6 heterodimer) (Homo sapiens, UniProt P43246+P52701)
Assay: Biacore SPR
Type: binding

Chain of MutSα (MSH2/MSH6 heterodimer) (P43246 2-934): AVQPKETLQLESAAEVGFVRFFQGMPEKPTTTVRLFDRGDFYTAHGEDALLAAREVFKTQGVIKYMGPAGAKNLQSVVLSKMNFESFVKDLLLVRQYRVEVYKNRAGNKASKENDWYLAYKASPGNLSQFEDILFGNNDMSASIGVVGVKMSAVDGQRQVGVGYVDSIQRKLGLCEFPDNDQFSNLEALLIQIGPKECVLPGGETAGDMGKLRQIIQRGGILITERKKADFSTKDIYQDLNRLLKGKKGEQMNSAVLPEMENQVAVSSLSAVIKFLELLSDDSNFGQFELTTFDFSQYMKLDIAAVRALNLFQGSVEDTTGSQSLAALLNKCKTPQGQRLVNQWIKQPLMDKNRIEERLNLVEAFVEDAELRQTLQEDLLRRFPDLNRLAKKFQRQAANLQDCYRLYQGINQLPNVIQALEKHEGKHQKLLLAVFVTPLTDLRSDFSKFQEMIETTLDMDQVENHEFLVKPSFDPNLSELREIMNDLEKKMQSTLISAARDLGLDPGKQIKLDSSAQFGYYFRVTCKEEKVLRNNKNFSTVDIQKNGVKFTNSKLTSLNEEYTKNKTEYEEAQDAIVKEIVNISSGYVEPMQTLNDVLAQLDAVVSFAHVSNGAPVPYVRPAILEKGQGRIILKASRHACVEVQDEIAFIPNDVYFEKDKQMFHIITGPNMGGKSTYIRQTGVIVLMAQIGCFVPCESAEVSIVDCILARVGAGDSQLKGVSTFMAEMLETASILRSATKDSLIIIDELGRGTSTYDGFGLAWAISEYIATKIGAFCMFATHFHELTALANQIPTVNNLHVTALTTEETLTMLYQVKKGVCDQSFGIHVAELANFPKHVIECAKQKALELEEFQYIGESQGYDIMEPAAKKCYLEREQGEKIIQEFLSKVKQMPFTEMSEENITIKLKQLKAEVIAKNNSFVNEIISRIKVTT
Chain of MutSα (MSH2/MSH6 heterodimer) (P52701 whole entry): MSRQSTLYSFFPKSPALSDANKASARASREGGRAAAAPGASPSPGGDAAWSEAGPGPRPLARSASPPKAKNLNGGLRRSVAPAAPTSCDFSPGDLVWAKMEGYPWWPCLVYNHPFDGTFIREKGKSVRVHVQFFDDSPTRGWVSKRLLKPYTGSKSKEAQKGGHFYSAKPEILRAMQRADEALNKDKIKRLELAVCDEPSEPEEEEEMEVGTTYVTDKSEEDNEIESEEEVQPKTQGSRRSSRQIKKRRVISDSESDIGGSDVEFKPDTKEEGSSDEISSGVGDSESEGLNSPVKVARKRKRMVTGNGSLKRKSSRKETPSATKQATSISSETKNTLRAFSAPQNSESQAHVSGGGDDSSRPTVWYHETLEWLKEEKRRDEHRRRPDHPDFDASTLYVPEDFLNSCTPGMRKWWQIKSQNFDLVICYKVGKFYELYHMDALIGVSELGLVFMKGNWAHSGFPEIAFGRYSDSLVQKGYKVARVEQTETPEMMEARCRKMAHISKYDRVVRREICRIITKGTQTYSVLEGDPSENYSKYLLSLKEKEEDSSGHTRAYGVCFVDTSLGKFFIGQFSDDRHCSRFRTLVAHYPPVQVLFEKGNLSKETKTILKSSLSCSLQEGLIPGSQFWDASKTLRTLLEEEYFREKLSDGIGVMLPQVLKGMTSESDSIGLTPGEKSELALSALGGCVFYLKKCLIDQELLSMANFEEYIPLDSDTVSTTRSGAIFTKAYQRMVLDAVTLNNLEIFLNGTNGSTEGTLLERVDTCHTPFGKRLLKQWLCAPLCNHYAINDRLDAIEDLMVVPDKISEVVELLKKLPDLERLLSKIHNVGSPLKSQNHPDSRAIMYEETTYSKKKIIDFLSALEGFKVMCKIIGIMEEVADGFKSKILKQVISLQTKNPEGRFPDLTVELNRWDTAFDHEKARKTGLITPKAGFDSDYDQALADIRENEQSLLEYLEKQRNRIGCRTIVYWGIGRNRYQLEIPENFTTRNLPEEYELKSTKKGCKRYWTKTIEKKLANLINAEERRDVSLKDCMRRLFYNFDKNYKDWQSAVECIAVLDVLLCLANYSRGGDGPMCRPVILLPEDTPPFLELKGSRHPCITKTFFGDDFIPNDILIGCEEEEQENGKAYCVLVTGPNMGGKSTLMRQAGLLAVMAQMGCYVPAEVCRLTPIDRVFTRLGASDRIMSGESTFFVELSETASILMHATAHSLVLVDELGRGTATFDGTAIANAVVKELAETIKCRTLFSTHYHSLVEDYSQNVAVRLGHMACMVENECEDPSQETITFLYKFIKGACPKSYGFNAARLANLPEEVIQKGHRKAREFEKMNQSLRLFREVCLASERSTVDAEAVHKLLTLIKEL

O=c1cc(-c2ccccc2)oc2cc(O)c(O)c(O)c12 [baicalein, 5,6,7-trihydroxyflavone]
Kd: ~32.2 µM
